Reference: patent US8183373B2, “Solid state forms of sitagliptin salts” (Teva Pharmaceutical Industries Ltd., priority 2010, dated 2012)
Where a name gives a salt, the structure may show the parent alone.

Experiments:
Assay type in all cases: physicochemical
[1] = Storage of a crystalline form under controlled relative humidity, form determined by powder XRD
Method: About 100 mg of Sitagliptin L-malate form I1 was put in an open yellow plastic cap, and kept at 100% relative humidity (RH) and room temperature for 6 days. It was then analyzed by powder XRD, and found to have transformed into form I2.
About 150 mg of Sitagliptin sulfate form S2 was put in an open Petri dish, and kept at 100±5% RH and room temperature for 12 days. It was then analyzed by powder XRD, and found to have transformed into form S9.
About 150 mg of Sitagliptin sulfate form S6 was put in an open Petri dish, and kept at 100±5% RH and room temperature for 12 days. It was then analyzed by powder XRD, and found to have transformed into form S9.
About 150 mg of Sitagliptin sulfate form S14 was stored under 80% RH at 25° C. for 7 days. The sample was then tested by XRPD and determined to be crystal form Si of Sitagliptin sulfate.
About 150 mg of Sitagliptin sulfate form S14 was stored under 100% RH at 25° C. for 7 days.
About 150 mg of Sitagliptin sulfate form S14 was stored under 70% RH at 25° C. for 7 days. The sample was then tested by XRPD and determined to be crystal form S1 of Sitagliptin sulfate.
About 150 mg of Sitagliptin sulfate form S14 was stored under 60% RH at 40° C. for 3 days. The sample was then tested by XRPD and determined to be crystal form S1 of Sitagliptin sulfate.

[2] = Solubility of Form S14 in aqueous media at 37° C.; settings: for solubility: thermodynamic from solid, read-out: Concentration (solubility)
Method: (§1) Solubility was tested by addition of portions of […] solution to 25 mg of STG salt and stirring it at 37° C. for 1-2 minutes till dissolved. Form S14 was also found to be chemically and polymorphically stable.

[3] = Chemical and polymorphic storage stability of Form S14; settings: six months at 25° C.
Method: as §1

[4] = Stability test in 0-100% relative humidity cells, 7 days, room temperature (XRPD and TGA); settings: for Polymorphically stable up to (relative humidity): 7 days at room temperature; for Equilibrium amount of water: from TGA of the humidity test
Method: A sample of form S14 was equilibrated in 0-100% relative humidity cells for 7 days at room temperature. The samples were analyzed by XRPD and TGA. […] 10-15 mg samples were placed into 150 μL alumina crucibles and scanned between 25-250° C. at 10°/minute heating rate under 40 ml/minute N2 flow rate. For XRPD the ARL instrument was used. A sample of form S16 was equilibrated in 0-100% relative humidity cells for 7 days at room temperature. The samples were analyzed by XRPD and TGA. […] 10-15 mg samples were placed into 150 μL alumina crucibles and scanned between 25-250° C. at 10°/minute heating rate under 40 ml/minute N2 flow rate. For XRPD the ARL instrument was used.

[5] = Water solubility of Form S16 (European Pharmacopoeia classification)
[6] = 0% RH, 7 days, room temperature
[7] = 20% RH, 7 days, room temperature
[8] = 40% RH, 7 days, room temperature
[9] = 60% RH, 7 days, room temperature
[10] = 80% RH, 7 days, room temperature
[11] = 100% RH, 7 days, room temperature

## N[C@@H](CC(=O)N1CCn2c(nnc2C(F)(F)F)C1)Cc1cc(F)c(F)cc1F [Form S14, Sitagliptin sulfate]
[1]; 80% RH at 25° C. for 7 days
  Form after storage (XRPD): Si
[1]; 100% RH at 25° C. for 7 days
  Form after storage (XRPD): polymorphic mixture of form S1 and form S11
[2]; aqueous medium, aqueous buffer, pH 4.5 37° C.
  solubility: 500 mg/mL
[2]; aqueous medium, aqueous buffer, pH 6.8 37° C.
  solubility: 330 mg/mL
[2]; aqueous medium, aqueous buffer, pH 7.8 37° C.
  solubility: 300 mg/mL
[2]; aqueous medium, simulated gastric fluid, pH 1.2, 37° C.
  solubility: 500 mg/mL
[2]; different aqueous media
  Solubility in different aqueous media: highly soluble
[2]; Water 37° C.
  solubility: 300 mg/mL
[3]
  Chemical and polymorphic stability: No degradation or polymorphic transformation
[4]
  Hygroscopicity: hygroscopic
  Polymorphically stable up to (relative humidity): up to 60 % RH
  Equilibrium amount of water: about 2%
[4]; [6]
  % weight loss (TGA): 2.3%
[4]; [7]
  % weight loss (TGA): 2.0%
[4]; [8]
  % weight loss (TGA): 1.9%
[4]; [9]
  % weight loss (TGA): 2.4%
[4]; [10]
  % weight loss (TGA): 4.4%
[4]; [11]
  % weight loss (TGA): 8.9%
[4]; Before the experiment
  % weight loss (TGA): 3.4%

## N[C@@H](CC(=O)N1CCn2c(nnc2C(F)(F)F)C1)Cc1cc(F)c(F)cc1F [Form S16, Sitagliptin sulfate]
[4]
  Hygroscopicity: low hygroscopicity
  Polymorphically stable up to (relative humidity): up to 60 % RH
  Equilibrium amount of water: about 2.9%
[4]; [6]
  % weight loss (TGA): 2.9%
[4]; [7]
  % weight loss (TGA): 2.9%
[4]; [8]
  % weight loss (TGA): 2.9%
[4]; [9]
  % weight loss (TGA): 2.9%
[4]; [10]
  % weight loss (TGA): 4.4%
[4]; [11]
  % weight loss (TGA): 8.9%
[4]; Before the experiment
  % weight loss (TGA): 3.0%
[4]; corresponds to the sesquihydrate
  Constant water content: 2.9%
[5]; classification of the European Pharmacopoeia Commission 01/2008:5110
  Solubility classification: freely soluble
[5]; in 1 mL of water, read-out: Amount soluble in 1 mL of water
  solubility: ≥ 100 mg/mL
